Source: the supplement of paper PMC10627819

Tests used:
[1] = system: B. subtilis 168; assay: Bliss interaction score (quartile over a dose matrix) (fitness difference); higher = more antagonism (negative = synergy)
Summary of the method: (§1)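 Each OD595 reading at entry into stationary phase was scaled to the robust mean of the untreated wells on its plate, with a ceiling of 1. These ratios define fitness, and single-drug fitness was inferred from combinations. The Bliss score compares observed fitness with the product-based expectation and is reported as quartiles across all replicate types, technical, biological and donor/recipient.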

[2] = system: S. aureus DSM 20231; assay: as above
Summary of the method: as §1

[3] = system: S. aureus Newman; assay: as above
Summary of the method: as §1

[4] = system: S. pneumoniae D39V; assay: as above
Summary of the method: as §1

[5] = system: B. subtilis 168; assay: fitness (endpoint OD595 vs no drug) (fraction); higher = more growth
Summary of the method: (§2)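 In 384-well plates at 37 °C, cultures began at OD595 0.01 in 30 µl, with 55 µl used for S. pneumoniae. OD595 readings every 30 min for 14 h were corrected by the first reading. Fitness divides the stationary-phase transition optical density by the robust mean of no-drug control wells. The result is capped at 1.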

[6] = system: S. aureus DSM 20231; assay: as above
Summary of the method: as §2

[7] = system: S. aureus Newman; assay: as above; details: main component drawn
Summary of the method: as §2
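Throughout, for Bliss interaction score (quartile over a dose matrix): first quartile when negative (synergy) and third quartile when positive (antagonism).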
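Throughout, for fitness (endpoint OD595 vs no drug): OD595 on entry to stationary phase over no-drug wells; at most 1.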

Cn1c2cccc(=O)c-2nc2ccccc21 [Pyocyanin] + COc1cc(Cc2cnc(N)nc2N)cc(OC)c1OC [Trimethoprim]
Details | Bliss interaction score
[1] | 0.0421
[2] | 0.163
[3] | 0.123
[4] | 0.117

fitness, one replicate
Details | partner 0.1 µg/mL | partner 0.125 µg/mL | partner 0.2 µg/mL | partner 0.4 µg/mL | partner 1 µg/mL | partner 2 µg/mL
[5], first compound 1.25 µg/mL | 0.744 | 0.7 | 0.672 | 0.502 | 0.354 | 0.3
[5], first compound 2.5 µg/mL | 0.758 | 0.598 | 0.669 | 0.414 | 0.297 | 0.273
[5], first compound 5 µg/mL | 0.501 | 0.563 | 0.429 | 0.242 | 0.191 | 0.211
[6], first compound 1.25 µg/mL | – | 0.659 | – | – | – | –
[6], first compound 2.5 µg/mL | – | 0.738 | – | – | – | –
[6], first compound 5 µg/mL | – | 0.577 | – | – | – | –

fitness
Details | first compound 1.25 µg/mL | first compound 2.5 µg/mL | first compound 5 µg/mL
[5], partner 0.25 µg/mL | 0.653 | 0.594 | –
[5], partner 0.5 µg/mL | 0.521 | 0.439 | 0.35
[6], partner 0.25 µg/mL | 0.553 | 0.555 | 0.5
[6], partner 0.5 µg/mL | 0.316 | 0.497 | 0.442
[6], partner 1 µg/mL | 0.0451 | 0.053 | 0.0904

CN(N=O)C(=O)N[C@@H](C=O)[C@@H](O)[C@H](O)[C@H](O)CO [Streptozotocin] + CCCCCCCCCC(=O)N[C@@H]1[C@H]([C@@H]([C@H](O[C@H]1OC2=C3C=C4C=C2OC5=C(C=C(C=C5)[C@H]([C@H]6C(=O)N[C@@H](C7=C(C(=CC(=C7)O)OC8[C@H]([C@H]([C@@H]([C@H](O8)CO)O)O)O)C9=C(C=CC(=C9)[C@H](C(=O)N6)NC(=O)[C@@H]4NC(=O)[C@@H]1C2=CC(=CC(=C2)OC2=C(C=CC(=C2)[C@H](C(=O)N[C@H](CC2=CC(=C(O3)C=C2)Cl)C(=O)N1)N)O)O)O)C(=O)O)O[C@H]1[C@@H]([C@H]([C@@H]([C@H](O1)CO)O)O)NC(=O)C)Cl)CO)O)O [Teicoplanin]
main component drawn
Details | Bliss interaction score
[1] | 0.154
[2] | 0.097
[3] | -0.166
[4] | -0.0829

fitness
Details | first compound 0.15 µg/mL | first compound 0.3 µg/mL | first compound 0.6 µg/mL
[6], partner 0.1562 µg/mL, main component drawn | 0.801 | 0.799 | 0.66
[6], partner 0.3125 µg/mL, main component drawn | 0.935 | 0.91 | 0.713
[6], partner 0.625 µg/mL, main component drawn | ≥ 1 | 0.937 | 0.787
[7], partner 0.62 µg/mL, one replicate | 0.661 | 0.47 | 0.181
[7], partner 1.24 µg/mL, one replicate | 0.578 | 0.259 | 0.0236
[7], partner 2.48 µg/mL, one replicate | 0.363 | 0.0725 | 0.055

fitness, [7]
Details | first compound 0.15 µg/mL | first compound 0.3 µg/mL | first compound 0.6 µg/mL
partner 0.1562 µg/mL | 0.874 | 0.724 | 0.493
partner 0.3125 µg/mL | 0.762 | 0.656 | 0.368
partner 0.625 µg/mL | 0.632 | 0.534 | 0.177

CN(N=O)C(=O)N[C@@H](C=O)[C@@H](O)[C@H](O)[C@H](O)CO [Streptozotocin] + COc1cc(Cc2cnc(N)nc2N)cc(OC)c1OC [Trimethoprim]
Details | Bliss interaction score
[1] | 0.062
[2] | -0.0675
[3] | -0.12
[4] | -0.125

fitness, one replicate
Details | first compound 0.15 µg/mL | first compound 0.3 µg/mL | first compound 0.6 µg/mL
[5], partner 0.1 µg/mL | 0.903 | 0.871 | 0.9
[5], partner 0.125 µg/mL | 0.748 | 0.728 | 0.731
[5], partner 0.2 µg/mL | 0.758 | 0.703 | 0.805
[5], partner 0.4 µg/mL | 0.523 | 0.536 | 0.521
[6], partner 0.125 µg/mL | 0.645 | 0.666 | 0.602

fitness
Details | first compound 0.15 µg/mL | first compound 0.3 µg/mL | first compound 0.6 µg/mL
[5], partner 0.5 µg/mL | 0.51 | 0.496 | 0.501
[6], partner 0.25 µg/mL | 0.549 | 0.557 | 0.493
[6], partner 0.5 µg/mL | 0.0352 | 0.0171 | 0.0159
[6], partner 1 µg/mL | 0.0265 | 0.0265 | 0.0187

Cc1cc(NS(=O)(=O)c2ccc(N)cc2)no1 [Sulfamethoxazol] + CCCCCCCCCC(=O)N[C@@H]1[C@H]([C@@H]([C@H](O[C@H]1OC2=C3C=C4C=C2OC5=C(C=C(C=C5)[C@H]([C@H]6C(=O)N[C@@H](C7=C(C(=CC(=C7)O)OC8[C@H]([C@H]([C@@H]([C@H](O8)CO)O)O)O)C9=C(C=CC(=C9)[C@H](C(=O)N6)NC(=O)[C@@H]4NC(=O)[C@@H]1C2=CC(=CC(=C2)OC2=C(C=CC(=C2)[C@H](C(=O)N[C@H](CC2=CC(=C(O3)C=C2)Cl)C(=O)N1)N)O)O)O)C(=O)O)O[C@H]1[C@@H]([C@H]([C@@H]([C@H](O1)CO)O)O)NC(=O)C)Cl)CO)O)O [Teicoplanin]
main component drawn
Details | Bliss interaction score
[1] | 0.0811
[2] | 0.0373
[3] | 0.0326
[4] | -0.0733

fitness
Details | partner 0.1562 µg/mL | partner 0.3125 µg/mL | partner 0.62 µg/mL | partner 0.625 µg/mL | partner 1.24 µg/mL | partner 2.48 µg/mL
[6], first compound 1 µg/mL, main component drawn | 0.941 | ≥ 1 | – | ≥ 1 | – | –
[6], first compound 2 µg/mL, main component drawn | ≥ 1 | ≥ 1 | – | ≥ 1 | – | –
[6], first compound 4 µg/mL, main component drawn | 0.965 | 0.991 | – | ≥ 1 | – | –
[7], first compound 1 µg/mL, one replicate | – | – | 0.805 | – | 0.726 | 0.397
[7], first compound 2 µg/mL, one replicate | – | – | 0.861 | – | 0.712 | 0.387
[7], first compound 4 µg/mL, one replicate | – | – | 0.788 | – | 0.724 | 0.425
[7], first compound 8 µg/mL, one replicate | 0.963 | 0.866 | – | 0.997 | – | –

fitness, [7]
Details | first compound 1 µg/mL | first compound 2 µg/mL | first compound 4 µg/mL
partner 0.1562 µg/mL | ≥ 1 | ≥ 1 | ≥ 1
partner 0.3125 µg/mL | ≥ 1 | 0.995 | 0.984
partner 0.625 µg/mL | ≥ 1 | ≥ 1 | 0.862

Cc1cc(NS(=O)(=O)c2ccc(N)cc2)no1 [Sulfamethoxazol] + COc1cc(Cc2cnc(N)nc2N)cc(OC)c1OC [Trimethoprim]
Details | Bliss interaction score
[1] | -0.173
[2] | -0.481
[3] | 0.0676
[4] | -0.364

fitness, one replicate
Details | first compound 0.5 µg/mL | first compound 1 µg/mL | first compound 2 µg/mL | first compound 4 µg/mL
[5], partner 0.1 µg/mL | – | 0.607 | 0.473 | 0.373
[5], partner 0.125 µg/mL | 0.481 | – | – | 0.285
[5], partner 0.2 µg/mL | – | 0.489 | 0.374 | 0.353
[5], partner 0.25 µg/mL | 0.389 | – | – | –
[5], partner 0.4 µg/mL | – | 0.343 | 0.318 | 0.352
[5], partner 0.5 µg/mL | 0.299 | – | – | –
[5], partner 1 µg/mL | – | 0.37 | 0.245 | 0.226
[5], partner 2 µg/mL | – | 0.323 | 0.163 | 0.109
[6], partner 0.125 µg/mL | – | 0.534 | 0.22 | 0.041

fitness
Details | first compound 1 µg/mL | first compound 2 µg/mL | first compound 4 µg/mL
[5], partner 0.125 µg/mL | 0.375 | 0.305 | –
[5], partner 0.25 µg/mL | 0.351 | 0.376 | –
[5], partner 0.5 µg/mL | 0.35 | 0.337 | 0.288
[6], partner 0.25 µg/mL | 0.0669 | 0.0417 | 0.023
[6], partner 0.5 µg/mL | 0.015 | 0.0145 | 0.0126
[6], partner 1 µg/mL | 0.0332 | 0.0147 | 0.013
